Assay results from patent publication US8247211B2, “Glycopeptide antibiotics” (American Cyanamid Company, priority 2001, dated 2012).
≈ marks a conversion by molar mass, not a printed value.

Tests used:
Assay in all cases: In vitro antibacterial evaluation: minimum inhibitory concentration (MIC), broth dilution method
Type in all cases: cell-based
Enterococcus sp. = conditions: for MIC Enterococcus faecalis (ATCC 29212): strain ATCC 29212; for MIC Enterococcus faecalis (GC 4552): strain GC 4552
Method: (§1) The minimum inhibitory concentration (MIC), the lowest concentration of the antibiotic which inhibits growth of the test organism, is determined by the broth dilution method using Muller-Hinton II […] (Baltimore Biological Laboratories) following the recommendations of the National Committee for Clinical Laboratory Standards [Methods for dilution antimicrobial susceptibility tests for bacteria that grow aerobically, approved standard M7-A2, National Committee for Clinical Laboratory Standards, Villanova, Pa].
(§2) An inoculum level of 5×10^5 CFU/mL, and a range of antibiotic concentrations (64-0.06 μg/mL) is used. […] The test organisms include a spectrum of Gram-positive bacteria comprised of Staphylococcus sp., Streptococcus sp. and Enterococcus sp. These organisms include recent clinical isolates that are resistant to methicillin, penicillin and/or vancomycin.

Escherichia coli = system: Escherichia coli
Method: as §1, §2

Staphylococcus sp. = conditions: for MIC Coagulase Negative Staphylococcus (GC 4537): strain GC 4537; for MIC Coagulase Negative Staphylococcus (GC 4538): strain GC 4538; for MIC Coagulase Negative Staphylococcus (GC 4547): strain GC 4547
Method: as §1, §2

[1] = broth dilution, 18 hours at 35° C.
[2] = strain SMITH GC 4536, broth dilution, 18 hours at 35° C.
[3] = broth dilution, 5×10^5 CFU/mL, 18 hours at 35° C.
[4] = 5×10^5 CFU/mL, 18 hours at 35° C.

| Compound | MIC Enterococcus faecalis (ATCC 29212) (Enterococcus sp.) | MIC Enterococcus faecalis (GC 2242) (Enterococcus sp.; strain GC 2242) | MIC Enterococcus faecalis (GC 4552) (Enterococcus sp.) | MIC Escherichia coli (GC 4559) (Escherichia coli; strain GC 4559) | MIC Escherichia coli (GC 4560) (Escherichia coli; strain GC 4560) | MIC Staphylococcus aureus (ATCC 29213) (Staphylococcus sp.; [1]) | MIC Staphylococcus aureus (GC 1131) (Staphylococcus sp.; [1]) | MIC Staphylococcus aureus (GC 4535) (Staphylococcus sp.; [1]) | MIC Staphylococcus aureus SMITH (GC 4536) (Staphylococcus sp.; [1]) | MIC Coagulase Negative Staphylococcus (GC 4537) (Staphylococcus sp.) | MIC Coagulase Negative Staphylococcus (GC 4537) (Staphylococcus sp.; [1]) | MIC Coagulase Negative Staphylococcus (GC 4538) (Staphylococcus sp.) | MIC Coagulase Negative Staphylococcus (GC 4538) (Staphylococcus sp.; [1]) | MIC Coagulase Negative Staphylococcus (GC 4547) (Staphylococcus sp.) | MIC Coagulase Negative Staphylococcus (GC 4547) (Staphylococcus sp.; [1]) | MIC Staphylococcus aureus-SMITH (GC 4536) (Staphylococcus sp.; [2]) | MIC Enterococccus faecalis (ATCC 29212) (Enterococcus sp.; [3]) | MIC Enterococccus faecalis (GC 4552) (Enterococcus sp.; [3]) | MIC Enterococcus faecalis (GC 2242) (Enterococcus sp.; [3]) | MIC Escherichia coli (GC 4560) (Escherichia coli; [4]) | also measured |
| --- | --- | --- | --- | --- | --- | --- | --- | --- | --- | --- | --- | --- | --- | --- | --- | --- | --- | --- | --- | --- | --- |
| CCCCCCC(=O)OCC1OC(N2C(=N)NCC2C(O)C2NC(=O)C(C(O)C3CNC(=N)N3)NC(=O)C(Cc3ccc(OC4OC(CO)C(OC5OC(CO)C(O)C(O)C5O)C(O)C4O)cc3)NC(=O)C(C(C)c3ccccc3)NC(=O)CNC(=O)C(CO)NC2=O)C(O)C(O)C1O (stereo not drawn) [Example 97] | >64 µg/mL | >64 µg/mL | >64 µg/mL | >64 µg/mL | 2 µg/mL (≈ 1.42 µM) | >64 µg/mL | >64 µg/mL | >64 µg/mL | >64 µg/mL | >64 µg/mL | >64 µg/mL | >64 µg/mL | >64 µg/mL | >64 µg/mL | >64 µg/mL | >64 µg/mL |  |  |  |  |  |
| CCCCCCC(=O)OCC1OC(Oc2ccc(CC3NC(=O)C(C(C)c4ccccc4)NC(=O)CNC(=O)C(CO)NC(=O)C(C(O)C4CNC(=N)N4C4OC(CO)C(O)C(O)C4O)NC(=O)C(C(O)C4CNC(=N)N4)NC3=O)cc2)C(O)C(O)C1OC1OC(CO)C(O)C(O)C1O (stereo not drawn) [Example 97a, Cyclo[glycyl-β-methylphenylalanyl-O-(6-O-heptanoyl-4-O-hexopyranosylhexopyranosyl)-tyrosyl-3-(2-iminoimidazolidin-4-yl)seryl-3-(3-hexopyranosyl-2-iminoimidazolidin-4-yl)-serylseryl]] | 8 µg/mL (≈ 5.68 µM) | 4 µg/mL (≈ 2.84 µM) | 16 µg/mL (≈ 11.4 µM) | >64 µg/mL | 1 µg/mL (≈ 0.711 µM) | 1 µg/mL (≈ 0.711 µM) | 2 µg/mL (≈ 1.42 µM) | 2 µg/mL (≈ 1.42 µM) | 0.5 µg/mL (≈ 0.355 µM) | 4 µg/mL (≈ 2.84 µM) | 4 µg/mL (≈ 2.84 µM) | 2 µg/mL (≈ 1.42 µM) | 2 µg/mL (≈ 1.42 µM) | 2 µg/mL (≈ 1.42 µM) | 2 µg/mL (≈ 1.42 µM) | 0.5 µg/mL (≈ 0.355 µM) |  |  |  |  |  |
| CC(c1ccccc1)C1NC(=O)CNC(=O)C(CO)NC(=O)C(C(O)C2CNC(=N)N2C2OC(CO)C(O)C(O)C2O)NC(=O)C(C(O)C2CNC(=N)N2)NC(=O)C(Cc2ccc(OC3OC(COC(=O)Cc4ccccc4)C(OC4OC(CO)C(O)C(O)C4O)C(O)C3O)cc2)NC1=O (stereo not drawn) [Example 98b] | 64 µg/mL (≈ 45.3 µM) | 64 µg/mL (≈ 45.3 µM) |  |  | 2 µg/mL (≈ 1.42 µM) | 16 µg/mL (≈ 11.3 µM) | 16 µg/mL (≈ 11.3 µM) | 16 µg/mL (≈ 11.3 µM) | 8 µg/mL (≈ 5.66 µM) | 16 µg/mL (≈ 11.3 µM) | 16 µg/mL (≈ 11.3 µM) | 8 µg/mL (≈ 5.66 µM) | 8 µg/mL (≈ 5.66 µM) | 8 µg/mL (≈ 5.66 µM) | 8 µg/mL (≈ 5.66 µM) | 8 µg/mL (≈ 5.66 µM) |  |  |  |  |  |
| CC(c1ccccc1)C1NC(=O)CNC(=O)C(CO)NC(=O)C(C(O)C2CNC(=N)N2C2OC(CO)C(O)C(O)C2O)NC(=O)C(C(O)C2CNC(=N)N2)NC(=O)C(Cc2ccc(OC3OC(CO)C(OC4OC(COC(=O)Cc5ccccc5)C(O)C(O)C4O)C(O)C3O)cc2)NC1=O (stereo not drawn) [Example 98c, Cyclo[glycyl-β-methylphenylalanyl-O-[4-O-[6-O-(phenylacetyl)hexopyranosyl]hexopyranosyl]-tyrosyl-3-(2-iminoimidazolidin-4-yl)seryl-3-(3-hexopyranosyl-2-iminoimidazolidin-4-yl)-serylseryl]] | 16 µg/mL (≈ 11.3 µM) | 8 µg/mL (≈ 5.66 µM) | 16 µg/mL (≈ 11.3 µM) | 64 µg/mL (≈ 45.3 µM) | 0.5 µg/mL (≈ 0.354 µM) | 2 µg/mL (≈ 1.42 µM) | 2 µg/mL (≈ 1.42 µM) | 4 µg/mL (≈ 2.83 µM) | 2 µg/mL (≈ 1.42 µM) | 2 µg/mL (≈ 1.42 µM) | 2 µg/mL (≈ 1.42 µM) | 1 µg/mL (≈ 0.708 µM) | 1 µg/mL (≈ 0.708 µM) | 1 µg/mL (≈ 0.708 µM) | 1 µg/mL (≈ 0.708 µM) | 2 µg/mL (≈ 1.42 µM) |  |  |  |  |  |
| CC(c1ccccc1)C1NC(=O)CNC(=O)C(CO)NC(=O)C(C(O)C2CNC(=N)N2C2OC(CO)C(O)C(O)C2O)NC(=O)C(C(O)C2CNC(=N)N2)NC(=O)C(Cc2ccc(OC3OC(COC(=O)CCC4CCCC4)C(OC4OC(CO)C(O)C(O)C4O)C(O)C3O)cc2)NC1=O (stereo not drawn) [Example 100b, Cyclo[glycyl-β-methylphenylalanyl-O-[6-O-(3-cyclopentylpropanoyl)-4-O-hexopyranosyl-hexopyranosyl]tyrosyl-3-(2-iminoimidazolidin-4-yl)seryl-3-(3-hexopyranosyl-2-iminoimidazolidin-4-yl)serylseryl]] |  |  |  |  |  |  |  |  |  | 2 µg/mL (≈ 1.41 µM) | 2 µg/mL (≈ 1.41 µM) | 1 µg/mL (≈ 0.704 µM) | 1 µg/mL (≈ 0.704 µM) | 1 µg/mL (≈ 0.704 µM) | 1 µg/mL (≈ 0.704 µM) | 2 µg/mL (≈ 1.41 µM) | 8 µg/mL (≈ 5.64 µM) | 8 µg/mL (≈ 5.64 µM) | 8 µg/mL (≈ 5.64 µM) | 0.5 µg/mL (≈ 0.352 µM) | MIC Staphylococcus aureus (ATCC 29213) (Staphylococcus sp.; strain ATCC 29213): 2 µg/mL (≈ 1.41 µM); MIC Staphylococcus aureus (GC 1131) (Staphylococcus sp.; strain GC 1131): 2 µg/mL (≈ 1.41 µM); MIC Staphylococcus aureus (GC 4535) (Staphylococcus sp.; strain GC 4535): 2 µg/mL (≈ 1.41 µM); MIC Staphylococcus aureus-SMITH (GC 4536) (Staphylococcus sp.; strain GC 4536): 2 µg/mL (≈ 1.41 µM) |
| CC(c1ccccc1)C1NC(=O)CNC(=O)C(CO)NC(=O)C(C(O)C2CNC(=N)N2C2OC(CO)C(O)C(O)C2O)NC(=O)C(C(O)C2CNC(=N)N2)NC(=O)C(Cc2ccc(OC3OC(CO)C(OC4OC(COC(=O)CCC5CCCC5)C(O)C(O)C4O)C(O)C3O)cc2)NC1=O (stereo not drawn) [Example 100c, Cyclo[glycyl-β-methylphenylalanyl-O-[4-O-[6-O-(3-cyclopentylpropanoyl)hexopyranosyl]-hexopyranosyl]tyrosyl-3-(2-iminoimidazolidin-4-yl)seryl-3-(3-hexopyranosyl-2-iminoimidazolidin-4-yl)serylseryl]] |  |  |  |  |  |  |  |  |  | 1 µg/mL (≈ 0.704 µM) | 1 µg/mL (≈ 0.704 µM) | 1 µg/mL (≈ 0.704 µM) | 1 µg/mL (≈ 0.704 µM) | 1 µg/mL (≈ 0.704 µM) | 1 µg/mL (≈ 0.704 µM) | 1 µg/mL (≈ 0.704 µM) | 4 µg/mL (≈ 2.82 µM) | 4 µg/mL (≈ 2.82 µM) | 2 µg/mL (≈ 1.41 µM) | 0.5 µg/mL (≈ 0.352 µM) | MIC Escherichia coli (GC 4559) (Escherichia coli; [4]): 32 µg/mL (≈ 22.5 µM); MIC Staphylococcus aureus (ATCC 29213) (Staphylococcus sp.; strain ATCC 29213): 1 µg/mL (≈ 0.704 µM); MIC Staphylococcus aureus (GC 1131) (Staphylococcus sp.; strain GC 1131): 1 µg/mL (≈ 0.704 µM); MIC Staphylococcus aureus (GC 4535) (Staphylococcus sp.; strain GC 4535): 1 µg/mL (≈ 0.704 µM); MIC Staphylococcus aureus-SMITH (GC 4536) (Staphylococcus sp.; strain GC 4536): 1 µg/mL (≈ 0.704 µM) |
